Experiment: Steady-state pharmacokinetic interaction study of the Compound and lopinavir/r (LPV/r)
Assay type: in vivo, human
Conditions: healthy volunteers
[1] = the Compound 125 mg QD + LPV/r 400/100 mg BID vs the Compound/r 125/100 mg QD (coadministration:alone), 14-day periods, n = 14

Row | exposures when coadministered with the Compound (steady state) | Compound exposures upon coadministration with LPV/r (steady state) | AUCtau % GMR (90% CI) [1] [%] | Cmax % GMR (90% CI) [1] [%] | Ctau % GMR (90% CI) [1] [%] | Structure (SMILES) | LPV trough concentrations when coadministered with the Compound (steady state)
1 | unaltered |  |  |  |  | CC(C)c1nc(CN(C)C(=O)NC(C(=O)NC(Cc2ccccc2)CC(O)C(Cc2ccccc2)NC(=O)OCc2cncs2)C(C)C)cs1 (stereo not shown) [RTV, 1,3-thiazol-5-ylmethyl[3-hydroxy-5-[3-methyl-2-[methyl-[(2-propan-2-yl-1,3-thiazol-4-yl)methyl]carbamoyl]amino-butanoyl]amino-1,6-diphenyl-hexan-2-yl]aminoformate, reference compound] | 
2 |  | substantially elevated | 175 | 152 | 238 | COc1cc2c(cc1Cc1cccc(Cl)c1F)c(=O)c(C(=O)O)cn2[C@H](CO)C(C)C [the Compound, 6-(3-chloro-2-fluorobenzyl)-1-[(2S)-1-hydroxy-3-methylbutan-2-yl]-7-methoxy-4-oxo-1,4-dihydroquinoline-3-carboxylic acid] | 
3 | unaltered |  |  |  |  | Cc1cccc(C)c1OCC(=O)N[C@@H](Cc1ccccc1)[C@@H](O)C[C@H](Cc1ccccc1)NC(=O)[C@H](C(C)C)N1CCCNC1=O [LPV, (2S)—N-[(2S,4S,5S)-5-{[2-(2,6-dimethyl-phenoxy)acetyl]amino}-4-hydroxy-1,6-diphenyl-hexan-2-yl]-3-methyl-2-(2-oxo-1,3-diazinan-1-yl)butanamide, reference compound] | maintained above recommended target troughs

From patent publication US20110009411A1, “THERAPEUTIC COMPOSITIONS AND THE USE THEREOF” (Gilead Sciences ,Inc., priority 2007, published 2011)
